Eight compounds from PubChem BioAssay (NCI) can be followed below.

Among the test systems are SK-MEL-28 melanoma; NCI-H226 lung; ACHN renal; HOP-62 NSCLC; MDA-MB-435; HT29 colon; HCT-15 colon; MOLT-4 leukemia; M14 melanoma; OVCAR-4 ovarian.
Holding throughout (assay): growth of human tumour cells (NCI), 48 h

“And” between values parts separate entries of the source, which are not always exact repeats. Identical values can stand only once.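 Where inhibition never reached the appropriate level, the endpoint shown equals the highest concentration tested. Otherwise, values were interpolated linearly from a five-concentration, 48-hour dose response in 96-well plates. Abbreviation: GI50, concentration required for 50% inhibition of growth. At the TGI there is no net growth.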

With `COc1ccc(S(=O)(=O)N2CCN(C(=O)OCc3ccccc3)CC2C(=O)NO)cc1` (configuration not stated), the GI50 in the assay with SK-MEL-28 melanoma is over 25 µM; in the assay on NCI-H226 lung, over 25 µM; with ACHN renal it was 10.6 µM; with HOP-62 NSCLC it was over 25 µM; in the assay on MDA-MB-435, 13.4 µM; with HT29 colon, over 25 µM. Further, the GI50 was over 25 µM with HCT-15 colon, 5.37 µM in the assay on MOLT-4 leukemia, over 25 µM with M14 melanoma and over 25 µM with OVCAR-4 ovarian. Also, the TGI with SK-MEL-28 melanoma, in the assay with NCI-H226 lung, in the assay with ACHN renal, in the assay with HOP-62 NSCLC, with MDA-MB-435 and with HT29 colon was over 25 µM in each case. The TGI with HCT-15 colon is over 25 µM; with MOLT-4 leukemia, 18.4 µM; in the assay with M14 melanoma, over 25 µM; in the assay with OVCAR-4 ovarian, over 25 µM.
Turning to `CS(=O)(=O)N1CCN(Cc2cc3nc(-c4cccc5[nH]ncc45)nc(N4CCOCC4)c3s2)CC1`, the GI50 in the assay with SK-MEL-28 melanoma is 0.345 µM and 0.133 µM; in the assay on NCI-H226 lung, 0.408 µM and 0.473 µM; with ACHN renal, 0.382 µM and 0.319 µM; with HOP-62 NSCLC, 0.655 µM and 0.573 µM; with MDA-MB-435, 0.728 µM and 0.276 µM; in the assay on HT29 colon it was 0.284 µM and 0.101 µM. The GI50 in the assay on HCT-15 colon was 0.721 µM and 0.453 µM; with MOLT-4 leukemia, 0.315 µM and 0.302 µM; in the assay with M14 melanoma it was 2.13 µM and 0.438 µM; in the assay with OVCAR-4 ovarian it was 2.77 µM and 0.894 µM. Moreover, the TGI is over 21.6 µM with NCI-H226 lung; over 100 µM in the assay on ACHN renal; over 100 µM in the assay on HOP-62 NSCLC; over 100 µM in the assay with MDA-MB-435; over 100 µM with HT29 colon; over 100 µM with HCT-15 colon. Also, the TGI in the assay with MOLT-4 leukemia, in the assay on M14 melanoma and in the assay on OVCAR-4 ovarian was over 100 µM in each case.
For the compound `NC(=O)c1nnn(Cc2cc(Cl)c(C(=O)c3ccc(Cl)cc3)c(Cl)c2)c1N`, the GI50 in the assay on SK-MEL-28 melanoma, in the assay with NCI-H226 lung, in the assay on HOP-62 NSCLC, with HT29 colon, in the assay on HCT-15 colon and in the assay on MOLT-4 leukemia was over 9.09 µM in each case. Further, the GI50 in the assay with M14 melanoma and in the assay with OVCAR-4 ovarian was over 9.09 µM each time. The TGI in the assay on SK-MEL-28 melanoma was > 9.09 µM and 44.6 µM; with NCI-H226 lung, > 9.09 µM and 55.8 µM; in the assay on ACHN renal it was > 9.09 µM and 35.1 µM; in the assay on HOP-62 NSCLC it was > 9.09 µM and 41.1 µM; with MDA-MB-435 it was over 40.7 µM; in the assay with HT29 colon, > 9.09 µM and 42 µM. For the same compound, the TGI was > 9.09 µM and 39.7 µM in the assay with HCT-15 colon; over 90.7 µM in the assay on MOLT-4 leukemia; > 9.09 µM and 36.7 µM in the assay with M14 melanoma; > 9.09 µM and 39.1 µM in the assay on OVCAR-4 ovarian.
On to `CC(C)(C)C(=O)OCOP(=O)(OCOC(=O)C(C)(C)C)C1CCCN(OC(=O)c2ccccc2)C1=O` (configuration not stated), for which the GI50 in the assay on SK-MEL-28 melanoma is 1.05 µM; with NCI-H226 lung, 1.34 µM; with ACHN renal, 0.666 µM; in the assay on HOP-62 NSCLC, 1.9 µM; in the assay on MDA-MB-435 it was 3 µM; with HT29 colon it was 0.529 µM. In addition, the GI50 with HCT-15 colon was 1.28 µM; with MOLT-4 leukemia, 1.02 µM; in the assay on M14 melanoma it was 2.3 µM; with OVCAR-4 ovarian, 3.56 µM. The TGI in the assay on SK-MEL-28 melanoma came out at 3.57 µM; in the assay on NCI-H226 lung it was 19.5 µM; in the assay on ACHN renal, 11.7 µM; with HOP-62 NSCLC it was 18.7 µM; in the assay on MDA-MB-435, 17.6 µM; in the assay on HT29 colon, 6.28 µM. Besides, the TGI was 39.9 µM in the assay on HCT-15 colon, 8.45 µM in the assay with MOLT-4 leukemia, 16.5 µM in the assay with M14 melanoma and over 100 µM with OVCAR-4 ovarian.
Consider `O=C(c1ccccn1)c1nnn2ccccc12`, for which the TGI in the assay with SK-MEL-28 melanoma, in the assay with NCI-H226 lung, with ACHN renal, in the assay with HOP-62 NSCLC, in the assay on MDA-MB-435 and in the assay with HT29 colon was over 100 µM throughout. Moreover, the TGI in the assay on HCT-15 colon, in the assay on MOLT-4 leukemia, in the assay on M14 melanoma and in the assay with OVCAR-4 ovarian was over 100 µM throughout.
As to `CC(C)c1ccc2c(N=Nc3ccc(S(N)(=O)=O)cc3)c(O)[nH]c2c1`, the GI50 is over 25 µM in the assay with SK-MEL-28 melanoma; 6.62 µM in the assay on NCI-H226 lung; over 14 µM in the assay with ACHN renal; 5.54 µM in the assay with HOP-62 NSCLC; over 23.2 µM with MDA-MB-435; over 25 µM with HT29 colon. The GI50 in the assay on HCT-15 colon was over 22.6 µM; with MOLT-4 leukemia it was over 25 µM; with M14 melanoma it was over 25 µM; in the assay with OVCAR-4 ovarian it was over 25 µM. Besides, the TGI with SK-MEL-28 melanoma was over 25 µM; with NCI-H226 lung, over 20.6 µM; in the assay with ACHN renal, over 25 µM; in the assay with HOP-62 NSCLC, 12.6 µM; in the assay on MDA-MB-435 it was over 25 µM; in the assay on HT29 colon, over 25 µM. Moreover, the TGI with HCT-15 colon, with MOLT-4 leukemia, in the assay with M14 melanoma and in the assay with OVCAR-4 ovarian was over 25 µM throughout.
For `COc1ccc(/C=C2\N=C(c3ccccc3)N(c3cc(C(F)(F)F)ccc3Cl)C2=O)cc1OC`, the GI50 in the assay with SK-MEL-28 melanoma is 46.9 µM; in the assay with NCI-H226 lung it was 56.6 µM; in the assay with ACHN renal, 58.1 µM; with HOP-62 NSCLC it was 21.1 µM; with MDA-MB-435, 40.6 µM; with HT29 colon, 26.9 µM. Further, the GI50 is 40.7 µM in the assay on HCT-15 colon, 29 µM with MOLT-4 leukemia, 28.5 µM in the assay on M14 melanoma and 39.2 µM with OVCAR-4 ovarian. For the same compound, the TGI with SK-MEL-28 melanoma was over 100 µM; with NCI-H226 lung, over 100 µM; in the assay on ACHN renal it was over 100 µM; with HOP-62 NSCLC, 51 µM; with MDA-MB-435 it was over 100 µM; in the assay on HT29 colon it was 63.1 µM. The TGI with HCT-15 colon is over 100 µM; in the assay with MOLT-4 leukemia, 71.7 µM; in the assay on M14 melanoma, 65.8 µM; in the assay on OVCAR-4 ovarian it was over 100 µM.
As for `CCOCCc1c(O)nc(SC)[nH]c1=O`, the GI50 in the assay on SK-MEL-28 melanoma, in the assay on NCI-H226 lung, with ACHN renal, with HOP-62 NSCLC, with MDA-MB-435 and in the assay on HT29 colon was over 100 µM throughout. The GI50 in the assay on HCT-15 colon, in the assay with MOLT-4 leukemia, in the assay with M14 melanoma and in the assay on OVCAR-4 ovarian was over 100 µM each time. Besides, the TGI in the assay on SK-MEL-28 melanoma, with NCI-H226 lung, with ACHN renal, in the assay with HOP-62 NSCLC, in the assay with MDA-MB-435 and in the assay with HT29 colon was over 100 µM each time. Moreover, the TGI in the assay with HCT-15 colon, in the assay with MOLT-4 leukemia, in the assay with M14 melanoma and in the assay with OVCAR-4 ovarian was over 100 µM in each case.
